# According to patent US11708376B2 (VIRGINIA TECH INTELLECTUAL PROPERTIES, INC., priority 2018, dated 2023):
# Tested on: whole cells (NMuLi, C2Cl2, and L6 cells, isolated cardiomyocytes, human primary fibroblasts)
# Test: Oxygen consumption rate (OCR) in whole cells, Seahorse XF-24 Flux Analyzer
# Assay type: cell-based
# Details: cell type for Table 1 not stated, read-out: OCR Activity (increase in OCR), binned EC50
# Experimental: Biological activities of the compounds synthesized is determined by determining increase in oxygen consumption rate (OCR).
# Oxygen consumption rate (OCR) in whole cells is measured in general accordance with the method of Kenwood B M et al. (Mol. Met. (2014) 3: 114-123).
# OCR is measured using a Seahorse XF-24 Flux Analyzer (Seahorse Biosciences, North Billerica, Mass.). NMuLi, C2Cl2, and L6 cells are seeded in a Seahorse 24-well tissue culture plate at a density of 3.5×10^4 cells/well, isolated cardiomyocytes at a density of 4×10^4 cells/well, and human primary fibroblasts at a density of 1.1×10^4 cells/well. The cells are then allowed to adhere for 24 h. Prior to the assay, the media is changed to unbuffered DMEM containing pyruvate and glutamine (Gibco #12800-017, pH=7.4 at 37° C.) and the cells are equilibrated for 30 mins at 37° C. Compounds are injected during the assay and OCR is measured using 2 min measurement periods.
# 2-3 wells are used per condition and averaged over three plates (n=6-9). Statistical significance is determined by two-way ANOVA with Bonfenoni's posttest.
# Activities are reported as binned EC50 values: A=5 μM or less; B=>5 to 20 μM; C=over 20 μM; NA=no effect.
row,SMILES,EC50 [µM]
1,"COc1nc2[nH]c(C(F)(F)F)nc2nc1Nc1ccc(OC(F)(F)F)cc1 [Compound 2-1, 6-methoxy-N-(4-(trifluoromethoxy)phenyl)-2-(trifluoromethyl)-1H-imidazo[4,5-b]pyrazin-5-amine]",> 20
2,"CCCCc1ccc(Nc2nc3nc(C(F)(F)F)[nH]c3nc2OC)cc1 [Compound 2-2, 6-methoxy-N-(4-(N-butyl)phenyl)-2-(trifluoromethyl)-1H-imidazo[4,5-b]pyrazin-5-amine]",5 to 20
3,"COc1nc2[nH]c(C(F)(F)F)nc2nc1Nc1cc(C(F)(F)F)ccc1F [Compound 2-3, 6-methoxy-N-(2-fluoro-5-(trifluoromethyl)phenyl)-2-(trifluoromethyl)-1H-imidazo[4,5-b]pyrazin-5-amine]",> 20
4,"COc1nc2[nH]c(C(F)(F)F)nc2nc1Nc1cccc(OC(F)(F)F)c1 [Compound 2-4, 6-methoxy-N-(3-(trifluoromethoxy)phenyl)-2-(trifluoromethyl)-1H-imidazo[4,5-b]pyrazin-5-amine]",5 to 20
5,"COc1nc2[nH]c(C(F)(F)F)nc2nc1Nc1cc(C(F)(F)F)ccc1C [Compound 2-5, 6-methoxy-N-(2-methyl-5-(trifluoromethyl)phenyl)-2-(trifluoromethyl)-1H-imidazo[4,5-b]pyrazin-5-amine]",5 to 20
6,"COc1nc2[nH]c(C(F)(F)F)nc2nc1Nc1cccc(C(F)(F)F)c1F [Compound 2-6, 6-methoxy-N-(2-fluoro-3-(trifluoromethyl)phenyl)-2-(trifluoromethyl)-1H-imidazo[4,5-b]pyrazin-5-amine]",≤ 5
7,"COc1nc2[nH]c(C(F)(F)F)nc2nc1Nc1cc(C(F)(F)F)cc(C(F)(F)F)c1 [Compound 2-8, 6-methoxy-(3,5-bis(trifluoromethyl)phenyl)-2-(trifluoromethyl)-1H-imidazo[4,5-b]pyrazin-5-amine]",5 to 20
8,"COc1nc2[nH]c(C(F)(F)F)nc2nc1Nc1ccccc1F [Compound 2-9, 6-methoxy-(2-fluorophenyl)-2-(trifluoromethyl)-1H-imidazo[4,5-b]pyrazin-5-amine]",5 to 20
9,"COc1nc2[nH]c(C(F)(F)F)nc2nc1Nc1ccc(OC(F)(F)F)c(F)c1 [Compound 2-13, 6-methoxy-N-(3-fluoro-4-(trifluoromethoxy)phenyl)-2-(trifluoromethyl)-1H-imidazo[4,5-b]pyrazin-5-amine]",5 to 20
10,"COc1nc2[nH]c(C(F)(F)F)nc2nc1Nc1ccc(C(F)(F)F)cc1F [Compound 2-14, 6-methoxy-N-(2-fluoro-4-(trifluoromethyl)phenyl)-2-(trifluoromethyl)-1H-imidazo[4,5-b]pyrazin-5-amine]",≤ 5
11,"COc1nc2[nH]c(C(F)(F)F)nc2nc1Nc1cc(F)cc(F)c1 [Compound 2-15, 6-methoxy-N-(3,5-difluorophenyl)-2-(trifluoromethyl)-1H-imidazo[4,5-b]pyrazin-5-amine]",> 20
12,"COc1nc2[nH]c(C(F)(F)F)nc2nc1Nc1cccc(F)c1F [Compound 2-16, 6-methoxy-N-(2,3-difluorophenyl)-2-(trifluoromethyl)-1H-imidazo[4,5-b]pyrazin-5-amine]",5 to 20
13,COc1nc2[nH]c(C(F)(F)F)nc2nc1Nc1ccccc1C(F)(F)F [Compound 2-17],≤ 5
14,"COc1nc2[nH]c(C(F)(F)F)nc2nc1Nc1ccc(-c2ccccc2)cc1 [Compound 2-18, N-([1,1′-biphenyl]-4-yl)-6-methoxy-2-(trifluoromethyl)-1H-imidazo[4,5-b]pyrazin-5-amine]",> 20
15,"COc1nc2[nH]c(C(F)(F)F)nc2nc1Nc1ccc(C(C)(C)C)cc1 [Compound 2-19, 6-methoxy-N-(4-(tert-butyl)phenyl)-2-(trifluoromethyl)-1H-imidazo[4,5-b]pyrazin-5-amine]",5 to 20
16,"COc1nc2[nH]c(C(F)(F)F)nc2nc1Nc1ccc2ccccc2c1 [Compound 2-20, 6-methoxy-N-(naphthalen-2-yl)-2-(trifluoromethyl)-1H-imidazo[4,5-b]pyrazin-5-amine]",5 to 20
17,"COc1nc2[nH]c(C(F)(F)F)nc2nc1Nc1ccc(C(F)(F)F)cc1 [Compound 2-22, 6-methoxy-N-(4-(trifluoromethyl)phenyl)-2-(trifluoromethyl)-1H-imidazo[4,5-b]pyrazin-5-amine]",5 to 20
18,"COc1nc2[nH]c(C(F)(F)F)nc2nc1Nc1ccc(C(F)(F)F)c(F)c1 [Compound 2-23, 6-methoxy-N-(3-fluoro-4-(trifluoromethyl)phenyl)-2-(trifluoromethyl)-1H-imidazo[4,5-b]pyrazin-5-amine]",> 20

row,SMILES,EC50 [µM]
1,"COc1nc2[nH]c(C(F)(F)F)nc2nc1Nc1ccc(Cl)cc1 [Compound 2-26, 6-methoxy-N-(4-chlorophenyl)-2-(trifluoromethyl)-1H-imidazo[4,5-b]pyrazin-5-amine]",5 to 20
2,"COc1nc2[nH]c(C(F)(F)F)nc2nc1Nc1ccc(I)cc1 [Compound 2-30, 6-methoxy-N-(4-iodophenyl)-2-(trifluoromethyl)-1H-imidazo[4,5-b]pyrazin-5-amine]",5 to 20
3,"COc1nc2[nH]c(C(F)(F)F)nc2nc1Nc1cccc(I)c1 [Compound 2-31, 6-methoxy-N-(3-iodophenyl)-2-(trifluoromethyl)-1H-imidazo[4,5-b]pyrazin-5-amine]",5 to 20
4,"COc1nc2[nH]c(C(F)(F)F)nc2nc1Nc1cccc(C(F)(F)F)c1 [Compound 2-32, 6-methoxy-N-(3-(trifluoromethyl)phenyl)-2-(trifluoromethyl)-1H-imidazo[4,5-b]pyrazin-5-amine]",5 to 20
5,"COc1nc2[nH]c(C(F)(F)F)nc2nc1Nc1ccc(C(C)(C)C)cc1F [Compound 2-33, 6-methoxy-N-(2-fluoro-4-(tert-butyl)phenyl)-2-(trifluoromethyl)-1H-imidazo[4,5-b]pyrazin-5-amine]",5 to 20
6,COc1nc2[nH]c(C(F)(F)C(F)(F)F)nc2nc1Nc1cccc(C(F)(F)F)c1F [Compound 2-34],5 to 20
7,"CCCCOc1nc2[nH]c(C(F)(F)F)nc2nc1Nc1ccc(OC(F)(F)F)cc1 [Compound 2-35, 6-butoxy-N-(4-(trifluoromethoxy)phenyl)-2-(trifluoromethyl)-1H-imidazo[4,5-b]pyrazin-5-amine]",> 20
8,"FC(F)(F)COc1nc2[nH]c(C(F)(F)F)nc2nc1Nc1ccc(OC(F)(F)F)cc1 [Compound 2-36, 6-(2,2,2-trifluoroethoxy)-N-(4-(trifluoromethoxy)phenyl)-2-(trifluoromethyl)-1H-imidazo[4,5-b]pyrazin-5-amine]",≤ 5
9,"CCOc1nc2[nH]c(C(F)(F)F)nc2nc1Nc1ccc(OC(F)(F)F)cc1 [Compound 2-37, 6-ethoxy-N-(4-(trifluoromethoxy)phenyl)-2-(trifluoromethyl)-1H-imidazo[4,5-b]pyrazin-5-amine]",> 20
10,"CCOc1nc2[nH]c(C(F)(F)F)nc2nc1Nc1ccc(OC(F)(F)F)cc1F [Compound 2-38, 6-ethoxy-N-(2-fluoro-4-(trifluoromethoxy)phenyl)-2-(trifluoromethyl)-1H-imidazo[4,5-b]pyrazin-5-amine]",5 to 20
11,"CCCOc1nc2[nH]c(C(F)(F)F)nc2nc1Nc1ccc(OC(F)(F)F)cc1F [Compound 2-39, 6-propoxy-N-(2-fluoro-4-(trifluoromethoxy)phenyl)-2-(trifluoromethyl)-1H-imidazo[4,5-b]pyrazin-5-amine]",5 to 20
12,"COc1nc2[nH]c(C(F)(F)F)nc2nc1Oc1ccc(C(F)(F)F)cc1 [Compound 2-40, 6-methoxy-2-(trifluoromethyl)-5-(4-(trifluoromethyl)phenoxy)-1H-imidazo[4,5-b]pyrazine]",≤ 5
13,"COc1nc2[nH]c(C(F)(F)F)nc2nc1Nc1ccc(OC(F)(F)F)cc1I [Compound 2-41, N-(2-iodo-4-(trifluoromethoxy)phenyl)-6-methoxy-2-(trifluoromethyl)-1H-imidazo[4,5-b]pyrazin-5-amine]",5 to 20
14,"COc1nc2[nH]c(C(F)(F)F)nc2nc1Nc1ccc(OC(F)(F)F)cc1Cl [Compound 2-42, N-(2-chloro-4-(trifluoromethoxy)phenyl)-6-methoxy-2-(trifluoromethyl)-1H-imidazo[4,5-b]pyrazin-5-amine]",5 to 20
15,"COc1nc2[nH]c(C(F)(F)F)nc2nc1Nc1ccc(OC(F)(F)F)c(Cl)c1 [Compound 2-43, N-(3-chloro-4-(trifluoromethoxy)phenyl)-6-methoxy-2-(trifluoromethyl)-1H-imidazo[4,5-b]pyrazin-5-amine]",> 20
16,"COc1nc2[nH]c(C(F)(F)F)nc2nc1Nc1ccc(OC(F)(F)F)c(Br)c1 [Compound 2-44, N-(3-bromo-4-(trifluoromethoxy)phenyl)-6-methoxy-2-(trifluoromethyl)-1H-imidazo[4,5-b]pyrazin-5-amine]",> 20
17,"CC(C)Oc1nc2nc(C(F)(F)F)[nH]c2nc1Nc1ccc(C(F)(F)F)cc1 [Compound 2-45, 5-isopropoxy-2-(trifluoromethyl)-N-(4-(trifluoromethyl)phenyl)-1H-imidazo[4,5-b]pyrazin-6-amine]",> 20
18,"Fc1ccccc1Oc1nc2nc(C(F)(F)F)[nH]c2nc1Nc1ccc(C(F)(F)F)cc1 [Compound 2-46, 5-(2-fluorophenoxy)-2-(trifluoromethyl)-N-(4-(trifluoromethyl)phenyl)-1H-imidazo[4,5-b]pyrazin-6-amine]",5 to 20
